According to patent US6589762B1, “Calcafluor screen for chitin biosynthesis inhibitors” (priority 1993, dated 2003):

Legend:
Aspergillus nidulans = assay: Calcofluor rescue with filamentous fungus instead of S. cerevisiae; format: cell-based; settings: very high calcofluor concentrations
Source text: (§1) Attempts are made to replace S. cerevisiae with several species of filamentous fungi, including Neurospora crassa, Aspergillus nidulans, Botrytis cinerea, Pseudocercosporella herpotrichoides, but all the species respond differently from S. cerevisiae. N. crassa and A. nidulans require very high concentrations of calcofluor to inhibit growth.

Neurospora crassa = assay: as above; format: cell-based; settings: very high calcofluor concentrations
Source text: as §1

Botrytis cinerea = assay: as above; format: cell-based; settings: does not grow in the media
Source text: as §1

[1] = test system: Pseudocercosporella herpotrichoides; assay: as above; format: cell-based; settings: does not grow in the media
Source text: as §1

Chs3 = target: T1, Chs3 (Saccharomyces cerevisiae, UniProt P29465); assay: In vitro chitin synthase enzyme assay (incorporation of UDP-14C-N-acetylglucosamine); format: biochemical
T1 construct: To assay Chs3 activity, membranes from cells lacking Chs1 and, preferably, Chs2 are prepared; endogenous in cells; host or cells: S. cerevisiae strains ECY36-3C, JW17-11/1A/FOA or SSY640-10A (crude membrane fraction)
Method: In Vitro Secondary Screens. These enzyme assays detect inhibition of individual chitin synthase isozymes Chs1, Chs2, and Chs3 by monitoring the incorporation of radioactive chitin precursor uridine diphospho-N-acetyl glucosamine into acid precipitable counts (i.e., chitin).
To assay Chs3 activity, membranes from cells lacking Chs1 and, preferably, Chs2 are prepared by a modification of the method of Orlean, P. cited above. Strain ECY36-3C, JW17-11/1A/FOA or SSY640-10A are inoculated into YEPD, and the culture is shaken at 30° C. Cells are harvested while still growing exponentially, e.g., at O.D.600 of ˜0.4 as measured in a Guilford Response™ spectrophotometer, washed once in 50 mM Tris-HCl, pH 7.5, containing 0.01 mM EDTA and 1 mM DTT (1,4-dithiothreitol), and resuspended in about 3 volumes of this buffer. Glass beads of about 200 to 300 micron diameter are added to just below the meniscus of the suspension, and cells are shaken by vortexing or in a Bead-Beater™ until lysis occurs, which is monitored microscopically. During this procedure, the cell suspension is kept below 10° C. by cooling in ice. The extract is collected, the glass beads are washed with the same buffer, and the wash is added to the extract. The volume is adjusted to about 20 original volumes with the same buffer.
The cell walls and debris are removed by a 10 minute centrifugation at about 3000×g. The samples are centriuged at 100,000×g for 40 minutes at 4° C. The membrane pellets are resuspended in about one original volume 50 mM Tris-HCl, pH 7.5 containing 0.01 mM EDTA which may contain 33% glycerol, and subjected to Dounce homogenization.
Ten μl of membranes are incubated with shaking in the presence of putative inhibitors in a standard 50 μl assay mixture containing 1 mM uridine diphospho-(^14C)-N-acetyl-glucosamine (400,000 cpm/μmole), 40 mM N-acetylglucosamine, 50 mM Tris-HCl, pH 7.5, and 5 mM MgCl2 at 25° C. The reaction is stopped after 90 minutes by addition of 10% trichloroacetic acid, and the amount of product quantified by filtration and scintillation counting.

[2] = test system: selected phytopathogenic fungi (Pseudocercosporella herpotrichoides, Rhizoctonia solani, Fusarium oxysporum); assay: In vitro fungicide discovery screen (growth in nutrient agar); format: cell-based
Method: Standard in vitro and in vivo fungicide discovery screens are employed as tertiary tests to prioritize actives from the calcofluor rescue screen and the secondary screens. […] These include fungi causing wheat eyespot (Pseudocercosporella herpotrichoides), rice sheath blight (Rhizoctonia solani) and damping off (Fusarium oxysporum); all synthesize chitin-containing cell walls. High potency fungicides are active against these species in the 10 ppm range (10 μg/ml), while nikkomycin Z can be detected at ˜70 μg/ml in the calcofluor rescue assay if 30 μl volumes are tested in welled plates.

[3] = test system: Saccharomyces cerevisiae strain Y294; assay: Calcofluor rescue screen (disk or well diffusion); format: cell-based; settings: for activity in the calcofluor rescue screen (turbid zone of growth): disk diffusion assay, 20 μg/disk, 30° C., two days
Method: A preferred method comprises adding a test sample to a Saccharomyces cerevisiae culture containing calcofluor white or a calcofluor white derivative. The test sample is introduced to a disk or a well on a culture plate in a standard diffusion assay using solidified media, or introduced into one of a series of equivalent tissue culture tubes or bottles in a standard turbidity assay using liquid media. The culture is incubated for such time under such conditions sufficient to observe yeast cell growth inhibition in a corresponding culture or culture plate area containing calcofluor white but no test sample. The extent of growth of the culture containing or surrounding the test sample is compared with the extent of growth in the culture or culture area containing no test sample. The presence of chitin synthesis inhibition is determined by observing whether growth in the presence of test sample exceeds growth in its absence. In a culture plate, this is a turbid zone of growth surrounding the test sample. In a culture tube series, this is enhanced turbidity.
autoclaving at 20 lbs for 15 min. Strain Y294 having genotype MATα leu2-3,112 ura3-52 his3Δ trp1 GAL+[CIR+] inoculated into this liquid media and grown overnight, an OD600 of ˜5 or greater, while being shaken at 30° C.
The plates are poured and test samples are placed on the plates. A ¼″ disk containing […] of nikkomycin Z is used as a positive control. The plates are incubated at 30° C. for two days and then examined for activity. Actives produce a turbid zone surrounding the test sample.
All compounds are tested by disk diffusion assay using the method of this invention at a rate of 20 μg/disk.

Chs1 = Chs1 (Saccharomyces cerevisiae, UniProt P08004); settings: Cabib, Antimicrob. Agents Chemother. 35: 170-173 (1991); cited from earlier work
[4] = test system: strain ECY36-3D (relies on chitin synthase isozyme 2); assay: In vivo secondary screen, growth of chitin synthase mutant yeast; format: cell-based, Saccharomyces cerevisiae; settings: for growth of strain ECY36-3D (in words): strain producing only Chs2
Source text: (§2) One type of calcofluor rescue secondary screen is an in vivo test that assays the effect of compounds on the growth of chitin synthase mutant yeast strains that rely on a single chitin synthase isozyme for survival. A number of these strains have been described, such as the strains that rely on chitin synthase isozymes 2 or 3 described by Shaw, J. A., et al. (J. Cell Biol. 114: 111-123 (1991)) and similar strains described in the Examples section below. In this type of secondary screening test, the test sample added to and incubated in a culture of a mutant yeast strain producing only chitin synthase 2 or 3 (denoted, respectively, Chs2 and Chs3) for such time under such conditions sufficient to observe growth in a corresponding culture containing no test sample. A comparison of the extent of growth in the culture containing test sample with growth in its absence is then made. Inhibition of growth in the presence of test sample indicates inhibition of synthase isozyme produced by the strain. Any type of growth assessment may be employed but, as in the primary calcofluor rescue screen, preferred cultures in the secondary screen are solid, with test samples applied to a disk or well, so that cell growth can be easily determined by visual inspection.
(§3) Especially preferred in vivo secondary screens employ a pair of genetically related strains, one producing one isozyme, e.g., Chs2, and the other producing a different isozyme, e.g., Chs3. Using pairs allows for the simultaneous determination that culture conditions are appropriate for growth in the absence of inhibition and the identification of which isozyme may be affected by inhibition. The pairs, for example, include the ECY36-3C and ECY36-3D strains described by Shaw, cited above, that produce only Chs3 and Chs 2, respectively, and similar pairs such as SSY640-10A (containing only Chs3) and SSY-638-3B (containing only Chs 2) described in the Examples below. […] In a similar manner, a comparison of differential effects observed in the growth of strain pairs in the presence of a test sample allows for the putative identification of which isozyme is affected by the sample.
(§4) In Vivo Secondary Screens. The in vivo calcofluor rescue secondary screens assay the differential effect of compounds on the growth of two pairs of yeast strains. Each strain in the pairs, denoted ECY36-3C and ECY36-3D and SSY640-10A and SSY638-3B, is a chitin synthase mutant that relies on the expression of a single chitin synthase isozyme for its survival.
(§5) Strains ECY36-3C and ECY36-3D are described by Shaw, J. A., et al., cited above. ECY36-3C has the genotype MATa, chs1-23, chs2::LEU2, ura3-52, leu2-3,112, trp1-1 and ECY36-3D has the genotype MATa, chs1-23, ca1^R1 (chs3^−), ura3-52, leu2-3,112, trp1-1. Both strains are segregants from crossing strain ECY33-18A (Mata, chs1-23, ca1^R1, ura3-52, leu2-3,112, trp1-1) and ECY19 Δ22 2-5B (MATα, chs1-23, chs2::LEU2, ura3-52, leu2-3,112, trp1-1) using standard methodology. ECY36-3C relies on the expression of chitin synthase isozyme 3 for survival, and ECY36-3D relies on chitin synthase isozyme 2 (Chs2).
(§6) Strains ECY36-3C and ECY36-3D are inoculated in SD medium containing nutritional supplements appropriate to strain growth, e.g., containing about 0.01% (w/v) each of uracil, adenine sulfate, leucine, tryptophan, histidine, and lysine. When the cultures reach stationary phase (typically after 24 hours), they are used immediately or stored at 4° C. for up to a week before use. The cultures are diluted 1/100 into YEPD medium containing 2% agar which has been maintained at ˜50° C., immediately poured into petri dishes, and allowed to cool. Test compounds are applied to cellulose filter disks as described in Example 1 above (e.g., nikkomycin Z, 4 μl of a 5 mg/ml solution), and the disks are applied to the agar. Plates are incubated at 30° C. overnight and growth inhibitory zones are measured around the disks after 24 hours. […]

[5] = test system: strain ECY36-3C (relies on chitin synthase isozyme 3); assay: as above; format: cell-based, Saccharomyces cerevisiae; settings: for growth of strain ECY36-3C (in words): strain producing only Chs3
Source text: as §2, §3, §4, §5, §6

A.T.C.C. strain S288c = assay: Comparison growth inhibition screen with strain S288c; format: cell-based, Saccharomyces cerevisiae; settings: same conditions at the same levels as Table III
[6] = test system: strain SSY638-3B (containing only Chs2); assay: In vivo secondary screen, growth of chitin synthase mutant yeast; format: cell-based, Saccharomyces cerevisiae
Source text: as §3, §4
(§7) Strain SSY640-10A has genotype chs1::HIS3, chs2::TRP1, his3, trp1, ade2, ade3, leu2, lys2, ura3 (possible cmk1Δ 1::HIS3). […]

[7] = test system: strain SSY640-10A (containing only Chs3); assay: as above; format: cell-based, Saccharomyces cerevisiae
Source text: as §3, §4, §7

[8] = filter disk on YEPD agar, 24 hours, total applied: Nikkomycin Z 25 μg, Test Compound 1 45 μg, Test Compound 2 200 μg

T1 sequence (P34226 1-693): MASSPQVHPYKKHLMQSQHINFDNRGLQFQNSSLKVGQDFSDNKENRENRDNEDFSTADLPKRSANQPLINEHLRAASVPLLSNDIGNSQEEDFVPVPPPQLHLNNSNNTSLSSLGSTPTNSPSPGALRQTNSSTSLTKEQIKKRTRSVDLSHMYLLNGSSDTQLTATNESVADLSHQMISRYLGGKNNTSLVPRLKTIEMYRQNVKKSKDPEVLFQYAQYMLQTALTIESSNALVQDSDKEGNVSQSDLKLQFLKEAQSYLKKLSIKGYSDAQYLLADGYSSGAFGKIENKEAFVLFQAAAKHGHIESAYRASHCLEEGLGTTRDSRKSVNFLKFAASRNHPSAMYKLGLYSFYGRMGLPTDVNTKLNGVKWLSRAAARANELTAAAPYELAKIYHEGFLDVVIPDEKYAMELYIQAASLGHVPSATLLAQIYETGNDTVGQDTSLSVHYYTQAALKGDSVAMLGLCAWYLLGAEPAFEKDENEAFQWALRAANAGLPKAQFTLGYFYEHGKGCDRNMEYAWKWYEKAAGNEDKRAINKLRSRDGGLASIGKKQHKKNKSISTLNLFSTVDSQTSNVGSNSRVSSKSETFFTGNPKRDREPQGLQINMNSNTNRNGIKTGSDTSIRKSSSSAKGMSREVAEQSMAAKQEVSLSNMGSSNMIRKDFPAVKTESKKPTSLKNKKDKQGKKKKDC
T1 sequence (P29465 whole entry): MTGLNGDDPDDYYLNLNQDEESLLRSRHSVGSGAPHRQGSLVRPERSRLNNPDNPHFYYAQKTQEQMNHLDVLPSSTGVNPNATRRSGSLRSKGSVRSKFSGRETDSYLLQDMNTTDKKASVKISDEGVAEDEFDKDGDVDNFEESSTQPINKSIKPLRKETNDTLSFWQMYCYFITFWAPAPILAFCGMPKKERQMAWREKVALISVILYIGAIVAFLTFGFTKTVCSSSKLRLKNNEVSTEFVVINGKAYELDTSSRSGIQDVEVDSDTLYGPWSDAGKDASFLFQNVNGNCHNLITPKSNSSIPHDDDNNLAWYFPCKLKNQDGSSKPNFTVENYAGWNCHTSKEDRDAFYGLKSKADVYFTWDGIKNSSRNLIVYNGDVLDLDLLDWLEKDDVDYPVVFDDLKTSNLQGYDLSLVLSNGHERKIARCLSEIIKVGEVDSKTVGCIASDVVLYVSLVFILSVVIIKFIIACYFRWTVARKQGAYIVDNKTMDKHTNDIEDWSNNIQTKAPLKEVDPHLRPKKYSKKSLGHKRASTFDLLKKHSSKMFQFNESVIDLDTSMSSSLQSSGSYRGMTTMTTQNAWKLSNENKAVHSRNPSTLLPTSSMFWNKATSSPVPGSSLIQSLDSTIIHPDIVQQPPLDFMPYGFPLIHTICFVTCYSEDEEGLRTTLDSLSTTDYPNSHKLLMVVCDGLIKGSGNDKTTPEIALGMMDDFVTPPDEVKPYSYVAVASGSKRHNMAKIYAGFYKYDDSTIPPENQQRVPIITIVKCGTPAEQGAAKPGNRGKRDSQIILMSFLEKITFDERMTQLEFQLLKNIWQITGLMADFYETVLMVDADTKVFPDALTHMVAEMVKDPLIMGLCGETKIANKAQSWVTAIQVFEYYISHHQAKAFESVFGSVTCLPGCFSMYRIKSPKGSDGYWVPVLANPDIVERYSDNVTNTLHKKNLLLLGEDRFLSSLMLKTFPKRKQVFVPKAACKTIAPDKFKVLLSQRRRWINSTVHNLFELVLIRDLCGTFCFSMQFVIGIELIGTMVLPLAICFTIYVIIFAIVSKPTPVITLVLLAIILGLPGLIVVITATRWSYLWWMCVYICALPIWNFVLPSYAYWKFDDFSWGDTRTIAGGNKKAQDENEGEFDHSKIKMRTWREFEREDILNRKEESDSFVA
Sequence of Chs1 (P08004 whole entry): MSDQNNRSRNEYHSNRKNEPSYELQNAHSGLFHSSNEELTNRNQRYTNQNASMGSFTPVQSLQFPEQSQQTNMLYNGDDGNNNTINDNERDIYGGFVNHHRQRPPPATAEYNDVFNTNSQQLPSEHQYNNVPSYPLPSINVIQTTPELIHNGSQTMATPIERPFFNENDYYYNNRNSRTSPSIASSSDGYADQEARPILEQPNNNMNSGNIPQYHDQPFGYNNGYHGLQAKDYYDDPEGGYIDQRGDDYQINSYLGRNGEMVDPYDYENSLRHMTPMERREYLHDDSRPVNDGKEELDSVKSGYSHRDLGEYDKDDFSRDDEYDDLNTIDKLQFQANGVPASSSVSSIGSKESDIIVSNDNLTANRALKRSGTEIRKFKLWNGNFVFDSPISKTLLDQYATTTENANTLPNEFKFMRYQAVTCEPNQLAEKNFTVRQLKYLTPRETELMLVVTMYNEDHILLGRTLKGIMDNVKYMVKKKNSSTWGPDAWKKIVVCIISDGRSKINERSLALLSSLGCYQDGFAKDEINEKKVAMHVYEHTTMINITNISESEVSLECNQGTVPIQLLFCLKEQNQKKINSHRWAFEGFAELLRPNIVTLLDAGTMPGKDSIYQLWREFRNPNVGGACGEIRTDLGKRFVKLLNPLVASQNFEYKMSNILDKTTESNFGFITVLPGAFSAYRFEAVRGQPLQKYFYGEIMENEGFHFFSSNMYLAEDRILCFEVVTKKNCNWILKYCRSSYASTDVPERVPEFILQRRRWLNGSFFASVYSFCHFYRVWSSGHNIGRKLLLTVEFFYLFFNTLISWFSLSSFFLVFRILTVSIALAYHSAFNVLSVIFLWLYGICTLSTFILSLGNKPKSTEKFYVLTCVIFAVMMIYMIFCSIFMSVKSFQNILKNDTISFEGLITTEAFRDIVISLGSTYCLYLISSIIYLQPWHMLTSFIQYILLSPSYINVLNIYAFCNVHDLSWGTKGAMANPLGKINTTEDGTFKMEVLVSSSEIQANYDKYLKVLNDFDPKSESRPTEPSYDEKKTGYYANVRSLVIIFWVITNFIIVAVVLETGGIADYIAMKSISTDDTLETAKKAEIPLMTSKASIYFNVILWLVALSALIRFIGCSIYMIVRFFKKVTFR

## CCC(CC)Nc1c([N+](=O)[O-])cc(C)c(C)c1[N+](=O)[O-] [prowl]
Aspergillus nidulans
  growth in calcofluor culture: extensive growth
Neurospora crassa
  growth in calcofluor culture: extensive growth

## NC(=O)OC[C@H](O)[C@@H](O)[C@H](N)C(=O)N[C@H](C(=O)O)[C@H]1O[C@@H](n2cc(C(=O)O)c(=O)[nH]c2=O)[C@H](O)[C@@H]1O [polyoxin D]
Botrytis cinerea
  rescue from calcofluor: no rescue
[1]
  rescue from calcofluor: no rescue
Aspergillus nidulans
  growth in calcofluor culture: extensive growth
Neurospora crassa
  growth in calcofluor culture: extensive growth
Chs3; 10 μM inhibitor
  % Chs3 Activity: 100%
Chs3; 30 μM inhibitor
  % Chs3 Activity: ˜40%
Chs3; 90 μM inhibitor
  % Chs3 Activity: ˜16%
[2]; 10 μg/ml concentration range, especially against Rhizoctonia
  activity against phytopathogenic fungi: excellent activity
[3]
  activity in the calcofluor rescue screen (turbid zone of growth): inactive

## COC(=O)c1ccccc1S(=O)(=O)NC(=O)Nc1nc(C)cc(C)n1 [sulfometuron methyl]
Aspergillus nidulans
  growth in calcofluor culture: extensive growth
Neurospora crassa
  growth in calcofluor culture: extensive growth

## Nc1nc(=O)[nH]cc1F [5-F-cytocine, 5-fluoro-cytosine]
Aspergillus nidulans
  growth in calcofluor culture: extensive growth
Neurospora crassa
  growth in calcofluor culture: extensive growth

## C[C@@H]([C@H](N)C(=O)N[C@H](C(=O)O)[C@H]1O[C@@H](n2ccc(=O)[nH]c2=O)[C@H](O)[C@@H]1O)[C@H](O)c1ccc(O)cn1 [nikkomycin Z]
Botrytis cinerea
  rescue from calcofluor: no rescue
[1]
  rescue from calcofluor: no rescue
Aspergillus nidulans
  growth in calcofluor culture: extensive growth
Neurospora crassa
  growth in calcofluor culture: extensive growth
Chs3; 1 μM inhibitor
  % Chs3 Activity: ˜80%
Chs3; 2.5 μM inhibitor
  % Chs3 Activity: ˜55%
Chs3; 5 μM inhibitor
  % Chs3 Activity: ˜41%
Chs3; secondary screening, Chs1, Chs2, Chs3 assays
  chitin synthase isozyme affected: act preferentially on the Chs3 isozyme
Chs1
  inhibition of Chs1 relative to Chs2: inhibit the activity of Chs1 to a much greater extent than Chs2
[2]; 25 μg/ml
  activity against phytopathogenic fungi: weakly active
[3]; 30 μl volumes tested in welled plates
  concentration at which detected in the calcofluor rescue assay: ~70 µg/mL
[3]
  activity in the calcofluor rescue screen (turbid zone of growth): active
[4]; [8]
  zone of inhibition, ECY36-3D: 0 mm
[4]
  growth of strain ECY36-3D (in words): unaffected
[4]; listed as Nikkomycin Z
  growth of strain ECY36-3D (in words): does not inhibit growth
[5]; comparison of strain pairs
  differential effect on Chs3-only versus Chs2-only strains: inhibits Chs3 to a significantly greater extent than Chs2
[5]; [8]
  zone of inhibition, ECY36-3C: 21 mm
[5]
  growth of strain ECY36-3C (in words): inhibited
[5]; listed as Nikkomycin Z
  growth of strain ECY36-3C (in words): inhibit the growth
A.T.C.C. strain S288c
  growth inhibition of strain S288c: no inhibition
[6]
  growth of strain SSY638-3B (in words): unaffected
[7]
  growth of strain SSY640-10A (in words): inhibited
